Experimental data as given in ChEMBL document CHEMBL1641476, “Tetrahydroquinoline derivatives as opioid receptor antagonists” (Bioorg Med Chem Lett, 2011).

Columns and labels:
[1] = biological target: Delta-type opioid receptor (Homo sapiens, UniProt P41143); test: Antagonist activity at human delta opioid receptor expressed in CHO cells assessed as [35S]GTPgammaS binding by SPA; type: functional, cell-based
[2] = biological target: Mu-type opioid receptor (Homo sapiens, UniProt P35372); test: Antagonist activity at human mu opioid receptor expressed in CHO cells assessed as [35S]GTPgammaS binding by SPA; type: functional, cell-based
Mu-type opioid receptor, sequence (P35372 whole entry): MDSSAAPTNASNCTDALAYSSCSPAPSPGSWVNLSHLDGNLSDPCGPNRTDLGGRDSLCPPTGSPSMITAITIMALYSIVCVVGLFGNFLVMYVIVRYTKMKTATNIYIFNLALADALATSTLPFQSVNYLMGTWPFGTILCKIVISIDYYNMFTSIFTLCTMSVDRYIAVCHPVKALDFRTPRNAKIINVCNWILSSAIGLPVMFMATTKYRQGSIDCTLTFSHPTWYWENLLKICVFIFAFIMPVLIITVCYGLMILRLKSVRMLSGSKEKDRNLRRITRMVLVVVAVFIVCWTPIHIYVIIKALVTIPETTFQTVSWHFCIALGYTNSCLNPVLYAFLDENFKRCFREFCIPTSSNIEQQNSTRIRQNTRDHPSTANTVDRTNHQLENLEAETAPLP

[3] = biological target: Kappa-type opioid receptor (Homo sapiens, UniProt P41145); test: Antagonist activity at human kappa opioid receptor expressed in CHO cells assessed as [35S]GTPgammaS binding by SPA; type: functional, cell-based
Kappa-type opioid receptor, sequence (P41145 whole entry): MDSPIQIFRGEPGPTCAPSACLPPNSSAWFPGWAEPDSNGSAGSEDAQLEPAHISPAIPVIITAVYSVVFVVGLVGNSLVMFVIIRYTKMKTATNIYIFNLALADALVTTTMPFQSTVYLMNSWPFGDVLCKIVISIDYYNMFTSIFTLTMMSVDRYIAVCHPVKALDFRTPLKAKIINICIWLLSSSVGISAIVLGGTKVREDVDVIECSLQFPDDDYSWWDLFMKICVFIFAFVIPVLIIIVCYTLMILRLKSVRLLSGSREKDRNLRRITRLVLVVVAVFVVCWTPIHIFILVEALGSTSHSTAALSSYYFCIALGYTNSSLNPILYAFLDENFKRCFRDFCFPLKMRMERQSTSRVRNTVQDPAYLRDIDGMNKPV

[4] = Clearance in iv dosed Long-Evans rat; type: ADME, organism-based; settings: in vivo
[5] = Volume of distribution at steady state in iv dosed Long-Evans rat; type: ADME, organism-based; settings: in vivo, read-out: Vdss
[6] = Half life in iv dosed Long-Evans rat; type: ADME, organism-based; settings: in vivo
[7] = test system: Rattus norvegicus; test: Ratio of drug level in po dosed Long-Evans rat; type: ADME, organism-based; settings: in vivo
[8] = Oral bioavailability in Long-Evans rat; type: ADME, organism-based; settings: in vivo

Delta-type opioid receptor, sequence (P41143 whole entry): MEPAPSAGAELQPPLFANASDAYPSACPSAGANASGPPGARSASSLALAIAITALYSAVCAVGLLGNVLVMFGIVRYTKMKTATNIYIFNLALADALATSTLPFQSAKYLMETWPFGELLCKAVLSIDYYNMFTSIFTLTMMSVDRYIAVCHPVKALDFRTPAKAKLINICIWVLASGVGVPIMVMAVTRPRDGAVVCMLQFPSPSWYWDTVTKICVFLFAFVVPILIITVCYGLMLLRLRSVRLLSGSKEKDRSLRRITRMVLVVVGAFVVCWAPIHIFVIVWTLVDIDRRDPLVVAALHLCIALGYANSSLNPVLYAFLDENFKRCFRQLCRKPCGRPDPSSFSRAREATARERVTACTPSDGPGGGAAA

SMILES	Ki [1] [nM]	Ki [2] [nM]	Ki [3] [nM]	clearance [4] [mL/min/kg]	Vd [5] [L/kg]	half-life [6] [h]	Ratio [7]	bioavailability [8] [%]
NC(=O)c1ccc2c(c1)CCCN2c1ccc(CNCCc2cccs2)cc1	316	25.1	631	–	–	–	–	–
NC(=O)c1ccc2c(c1)CCCN2c1ccc(CNCCC2CCOCC2)cc1	316	126	251	–	–	–	–	–
NC(=O)c1ccc2c(c1)CCCN2c1ccc(CNC2Cc3ccccc3C2)cc1	39.8	5.01	25.1	–	–	–	–	–
CC(C)CCNCc1ccc(N2CCCc3cc(C(N)=O)ccc32)cc1	316	79.4	501	–	–	–	–	–
CC(C)(C)CCNCc1ccc(N2CCCc3cc(C(N)=O)ccc32)cc1	316	50.1	251	–	–	–	–	–
C1=C(CCNCc2ccc(N3CCCc4ccccc43)cc2)CCCC1	> 3980	398	> 3980	–	–	–	–	–
CC1(C)CCC(NCc2ccc(N3CCCc4cc(C(N)=O)ccc43)cc2)CC1	50.1	10	63.1	–	–	–	–	–
CCCCCNCc1ccc(N2CCCc3cc(C(N)=O)ccc32)cc1	251	50.1	1000	–	–	–	–	–
Cc1cc(N2CCCc3cc(C(N)=O)ccc32)ccc1CNCCC1=CCCCC1	501	100	631	–	–	–	–	–
CC(C)CNCc1ccc(N2CCCc3cc(C(N)=O)ccc32)cc1	> 3980	631	1260	–	–	–	–	–
NC(=O)c1ccc2c(c1)CCCN2c1cc(F)c(CNC2Cc3ccccc3C2)c(F)c1	316	25.1	631	–	–	–	–	–
NC(=O)c1ccc2c(c1)CCCN2c1ccc(CNC2CCN(C3CCOCC3)CC2)cc1	> 3980	> 3980	> 3980	–	–	–	–	–
O=C(O)c1ccc2c(c1)CCCN2c1ccc(CNCCC2=CCCCC2)cc1	> 3980	> 3160	> 3980	–	–	–	–	–
NC(=O)c1ccc2c(c1)CCCN2c1ccc(CNCc2cccc(F)c2)cc1	398	100	631	–	–	–	–	–
NC(=O)c1ccc2c(c1)CCCN2c1ccc(CNCC2CCCCC2)cc1	398	39.8	316	–	–	–	–	–
NC(=O)c1ccc2c(c1)CCCN2c1cccc(C(=O)NCCC2=CCCCC2)c1	1580	2000	> 3980	–	–	–	–	–
NC(=O)c1ccc2c(c1)CCCN2c1ccc(CNCCc2cccc(F)c2)cc1	251	31.6	794	–	–	–	–	–

The remaining molecules from weak to strong by Ki [1], led by results:

Ki [1] [nM]	Ki [2] [nM]	Ki [3] [nM]	clearance [4] [mL/min/kg]	Vd [5] [L/kg]	half-life [6] [h]	Ratio [7]	bioavailability [8] [%]	SMILES
200	50.1	1260	–	–	–	–	–	NC(=O)c1ccc2c(c1)CCCN2c1cccc(CNCCC2=CCCCC2)c1
158	25.1	316	26.5	1.5	5.34	0.1	33	NC(=O)c1ccc2c(c1)CCCN2c1ccc(CNCCC2=CCCCC2)cc1
158	7.94	158	–	–	–	–	–	Cc1cc(N2CCCc3cc(C(N)=O)ccc32)ccc1CNC1Cc2ccccc2C1
100	7.94	200	–	–	–	–	–	NC(=O)c1ccc2c(c1)CCCN2c1ccc(CNC2Cc3ccccc3C2)c(F)c1
100	12.6	200	–	–	–	–	–	Cc1cc(CNCCC2=CCCCC2)ccc1N1CCCc2cc(C(N)=O)ccc21
100	15.8	200	–	–	–	–	–	NC(=O)c1ccc2c(c1)CCCN2c1ccc(CNC2Cc3ccccc3C2)c(Cl)c1
79.4	12.6	126	–	–	–	–	–	NC(=O)c1ccc2c(c1)CCCN2c1ccc(CNC2Cc3ccc(F)cc3C2)cc1 (stereo not drawn)
63.1	50.1	631	–	–	–	–	–	NC(=O)c1ccc2c(c1)CCCN2c1ccc(CNC2Cc3ccccc3C2)c(C(F)(F)F)c1
12.6	1.58	20	–	–	–	–	–	Cc1cc(CNC2Cc3ccccc3C2)ccc1N1CCCc2cc(C(N)=O)ccc21
